Experimental data: ChEMBL document CHEMBL4177591, “Synthesis and evaluation of the inhibitory activity of the four stereoisomers of the potent and selective human γ-glutamyl transpeptidase inhibitor GGsTop” (Bioorg Med Chem Lett, 2017)
Calls of active or inactive are those of the source. The calls are words filed in the database; no cut-off is given here.

Experiments:
Homo sapiens [1] = species: Homo sapiens; test: Inhibition of human GGT assessed as inactivation rate constant using gamma-Glu-AMC as substrate measured for 10 mins by fluorescence assay
Homo sapiens [2] = species: Homo sapiens; test: Inhibition of human GGT at 0.1 mM using gamma-Glu-AMC as substrate measured for 10 mins by fluorescence assay

Row | Structure (SMILES) | inhibition (Homo sapiens [1]) | K (Homo sapiens [2]) [M⁻¹ s⁻¹] | further results
1 | CO[P@@](=O)(CC[C@H](N)C(=O)O)Oc1cccc(CC(=O)O)c1 | inactive | – | –
2 | COP(=O)(CCC(N)C(=O)O)Oc1cccc(CC(=O)O)c1 (stereo not given) | – | – | K (Homo sapiens [1]): 51 M⁻¹ s⁻¹
3 | CO[P@@](=O)(CC[C@@H](N)C(=O)O)Oc1cccc(CC(=O)O)c1 | inactive | – | –
4 | CO[P@](=O)(CC[C@H](N)C(=O)O)Oc1cccc(CC(=O)O)c1 | – | 174 | –
5 | CO[P@](=O)(CC[C@@H](N)C(=O)O)Oc1cccc(CC(=O)O)c1 | – | 21.5 | –
